Experimental data reported in paper PMC3404088, “Development of a Small D-Enantiomeric Alzheimer’s Amyloid-β Binding Peptide Ligand for Future In Vivo Imaging Applications” (PLoS ONE, 2012).
Entries after “also recorded” stand apart in the source; their conditions may differ. Square brackets hold non-standard residues; d marks the D form. Peptide text beside a SMILES is read from it. * marks the point of attachment. 5FAM = O=C1OC2(c3ccc(O)cc3Oc3cc(O)ccc32)c2ccc(C(=O)*)cc21

Columns and labels:
[1] = target: T1, Aβ plaques in brain sections of transgenic APP (V717I) x PS1 (A246E) mice (Homo sapiens, UniProt P05067); assay: Ex vivo staining of mouse brain slices by FITC labeled compounds; details: for staining / recognition of Aβ plaques: 0.01 mg/ml ϕ-labeled compound, 2 h, 10 µm cryostat sections; for staining / recognition of Aβ plaques / background signal / staining pattern: fluorescence microscopy; for background signal: 0.01 mg/ml; for overlay with 6E10 anti-Aβ staining: co-staining with 6E10 (2 µg/ml) and DAPI, triple overlay
T1 construct: triple image overlay of respective stains reveal that the ϕ-compounds identify plaques; from tissue; host or cells: brain cryosections of APP (V717I) x PS1 (A246E) transgenic mice
Protocol: In vitro tissue section staining was performed according to previously described protocols with slight modifications. Mouse brains were obtained from male transgenic (tg) APP (London mutation V717l) x PS1 (A246E) mice aged 13–21 months and from female wild type (wt) mice aged 9–10 months. The mice were anesthetized and transcardially perfused with saline. The brains were removed and snap frozen. 10 µm thick sagittal cryostat sections through the whole mouse brain were produced and mounted onto glass slides. ϕ-labeled compounds were applied to investigate binding. Thus, the slides were thawed, washed in PBS and fixed in 4% paraformaldehyde (20 min at RT) just before incubation with ϕ-labeled compounds. One series of sections was treated only with fluorescent compounds (0.01 mg/ml, incubation time 2 h) while another series of sections were incubated with anti-Aβ antibody 6E10 at 1∶500 dilution (SIG-39320, Covance; final antibody concentration was 2 µg/ml) in addition to ϕ-labeled compounds (0.01 mg/ml). The slices were washed in PBS. The sections incubated with ϕ-labeled compound and 6E10 antibody were further incubated for 2 h at RT with Goat-anti-Mouse IgG1– AlexaFluor 555 (A21127, Invitrogen, 1∶1000 dilution) and washed with PBS. Finally, all sections were counterstained with 4’–6-Diamidino-2-phenylindole (DAPI, 32670, Sigma, incubation 5 min at RT) for the visualization of cell nuclei. The slides were mounted using Prolong Gold Antifade mounting medium (P36930, Invitrogen) and coverslipped.
The tissues were analyzed using a fluorescent Zeiss Axioscope 2 Plus microscope using the AxioVision 4 image analysis software.
A further series of slices was stained using a primary anti-fluorescein isothiocyanate antibody combined with alkaline phosphatase reaction for visualization of ϕ-labeled peptides. Briefly, the sections were treated with blocking solution (10% normal goat serum (NGS), 0.25% Triton X-100 in PBS for 1 h at RT) and incubated with primary antibody (rabbit-anti-FITC; Invitrogen) at a dilution of 1∶500. The sections were then washed and incubated for 2 h at RT with the secondary antibody goat-anti-rabbit-alkaline phosphatase (Sigma) at a dilution of 1∶100. After washing, the slides were incubated with BCIP/NBT substrate (Sigma) for 3 min, washed, dehydrated and mounted using Eukitt mounting medium.

Aβ1–42 monomers = target: T2, Aβ1–42 monomers (Homo sapiens, UniProt P05067); assay: ELISA, compound binding to Aβ1–42 peptide film (predominantly monomers); details: 10 µg/ml compound; optical density after pNPP incubation; value of one single experiment only
T2 construct: Aβ1–42 peptide film was prepared from lyophilized powder (Bachem); purchased Bachem
Protocol: Aβ1–42 peptide film was prepared from lyophilized powder (Bachem). The powder was reconstituted in HFIP to a final concentration of 1 mM, sonicated for 15 min at room temperature (RT), agitated overnight (ON), and aliquoted into non-siliconized microcentrifuge tubes (12 µl corresponding to 55 µg). The HFIP was evaporated under a stream of argon. The resulting peptide film was vacuum dried for 10 min and stored at -80°C. For direct use as peptide film, an aliquot of Aβ1–42 peptide film was reconstituted with 0.54% dimethylsulphoxide (DMSO) in phosphate buffered saline (PBS) to obtain a final concentration of 10 µg/ml and then used for the ELISA as described below. To prepare fibrils, 55 µg aliquot of peptide film was dissolved in 55 µl of 50 mM Tris-HCl, pH 7.4 and incubated at 37°C for five days. Next, the sample was centrifuged (10’000 rpm for 5 min) and the pellet was diluted in 50 mM Tris-HCl, pH 7.4.
Aβ1–42 peptide preparations were diluted in 0.05 M bicarbonate-carbonate buffer pH 9.6, to the final concentration of 10 µg/ml and coated onto ELISA plates (MaxiSorp, Nunc). After blocking (PBS; 0.05% Tween; 1% BSA), plates were incubated with 2- or 3-fold dilutions of D-compounds (starting concentration: 10 µg/ml) and incubated for 2 h at 37°C. Plates were then washed and incubated for 2 h at 37°C with the detection antibody Rabbit-a-fluorescein isothiocyanate-AP (Sigma; 1∶10’000 dilution) followed by the incubation for 2.5 h at room temperature (RT) with 1 mg/ml of phosphatase substrate (pNPP, Sigma). The absorbance signal was read at 405 nm wavelength using a Tecan plate reader (Tecan Group Lt, Männedorf, Switzerland).
ELISA plates (MaxiSorp, Nunc) were coated with anti-Aβ antibody 6E10 (Covance) at a concentration of 5 µg/ml. Either monomeric Aβ1–42 peptide film (mainly monomeric) or Aβ1–42 fibrils, which were prepared as described above, were diluted in PBS to the final concentration 10 µg/ml and mixed with 10-fold dilutions of D-peptide compounds in Eppendorf tubes (starting concentration of D-peptide compounds: 10 µg/ml). The tubes were incubated for 2 h at 37°C. Next, samples were distributed onto the ELISA plate and kept for 2 h at 37°C. Plates were washed and incubated for 2 h at 37°C with the detection antibody Rabbit-a-fluorescein isothiocyanate-AP (Sigma; 1∶10′000 dilution) following the incubation overnight (ON) at RT with 1 mg/ml of phosphatase substrate (pNPP, Sigma). The absorbance signal was read at 405 nm wavelength using the Tecan plate reader (Tecan Group Ltd, Männedorf, Switzerland).
To verify the SPR results, ELISA was employed to assay the interaction of the ACI-80 derivatives ACI-80-Kϕ, ACI-81-Kϕ, ACI-82-Kϕ, ACI-83-Kϕ, ACI-84-Kϕ, ACI-85-Kϕ, ACI-86-Kϕ, ACI-87-Kϕ, [^19F]-ACI-87-Kϕ, ACI-88-Kϕ, [^19F]-ACI-88-Kϕ, ACI-89-Kϕ, [^19F]-ACI-89-Kϕ) with Aβ1–42 fibrils and Aβ peptide film in solution containing mostly monomers and smaller oligomers (Table 4). To avoid any bias by possible conformational influences the ELISA has been carried out in two versions, once with immobilized antibody and once with immobilized Aβ1–42 as described in the methods section. Both assays yielded similar results and confirmed each other. […] Panels A and B in Figure 2 show the results for binding to Aβ1–42 fibrils and panels C and D in Figure 2 show the results for binding to freshly prepared Aβ1–42 peptide film, which contains mostly monomeric Aβ. In Table 4, the performance of the peptides is expressed relative to that of ACI-80-Kϕ.

Row | background signal [1] | binding value, binding Aβ1–42 monomers (Aβ1–42 monomers) | plaque detection via anti-fluorescein isothiocyanate antibody and alkaline phosphatase ([1]; tg mouse brain slices immersed in ϕ-peptide, BCIP/NBT chromogenic detection, light microscope) | SMILES | staining / recognition of Aβ plaques [1] | overlay with 6E10 anti-Aβ staining [1] | staining pattern [1]
1 | high background fluorescence | *0.79 | – | CC[C@@H](C)[C@@H](NC(=O)[C@@H](Cc1c[nH]cn1)NC(=O)[C@@H](CCCNC(=N)N)NC(=O)[C@@H](Cc1ccc(O)cc1)NC(=O)[C@@H](Cc1c[nH]cn1)NC(=O)[C@@H](CO)NC(=O)[C@H](N)CCC(N)=O)C(=O)N[C@H](CO)C(=O)N1CCC[C@@H]1C(=O)N[C@H](C)C(=O)N[C@H](CCC(N)=O)C(=O)N[C@H](CCCCN)C(=O)N[C@H](CCCCNC(=O)c1ccc2c(c1)C(=O)OC21c2ccc(O)cc2Oc2cc(O)ccc21)C(=O)O [ACI-87-Kϕ] (H-[dQ][dS][dH][dY][dR][dH][dI][dS][dP][dA][dQ][dK][dK](5FAM)-OH; N-terminus and C-terminus assumed) | readily recognized amyloid plaques | nearly no overlay with 6E10 anti-Aβ was detected | –
2 | lowest background signal of all peptides | *1.29 | – | CC[C@@H](C)[C@@H](NC(=O)[C@@H](Cc1c[nH]cn1)NC(=O)[C@@H](CCCNC(=N)N)NC(=O)[C@@H](Cc1ccc(O)cc1)NC(=O)[C@@H](Cc1c[nH]cn1)NC(=O)[C@H](N)CO)C(=O)N[C@H](CO)C(=O)N1CCC[C@@H]1C(=O)N[C@H](C)C(=O)N[C@H](CCC(N)=O)C(=O)N[C@H](CCCCN)C(=O)N[C@H](CCCCNC(=O)c1ccc2c(c1)C(=O)OC21c2ccc(O)cc2Oc2cc(O)ccc21)C(=O)O [ACI-88-Kϕ] (H-[dS][dH][dY][dR][dH][dI][dS][dP][dA][dQ][dK][dK](5FAM)-OH; N-terminus and C-terminus assumed) | stained plaques most intensively; also recorded: readily recognized amyloid plaques | match 6E10 anti-Aβ staining quite well; also recorded: good overlap with 6E10 Aβ staining | stained the core of plaques
3 | – | *1.06 | abundant chromogenic deposits | CC[C@@H](C)[C@@H](NC(=O)[C@@H](Cc1c[nH]cn1)NC(=O)[C@@H](CCCNC(=N)N)NC(=O)[C@@H](Cc1ccc(O)cc1)NC(=O)[C@@H](Cc1c[nH]cn1)NC(=O)[C@@H](CO)NC(=O)[C@H]1CCCN1)C(=O)N[C@H](CO)C(=O)N1CCC[C@@H]1C(=O)N[C@H](C)C(=O)N[C@H](CCC(N)=O)C(=O)N[C@H](CCCCN)C(=O)N[C@H](CCCCNC(=O)c1ccc2c(c1)C(=O)OC21c2ccc(O)cc2Oc2cc(O)ccc21)C(=O)O [ACI-89-Kϕ] (H-[dP][dS][dH][dY][dR][dH][dI][dS][dP][dA][dQ][dK][dK](5FAM)-OH; N-terminus and C-terminus assumed) | stained plaques most intensively; also recorded: readily recognized amyloid plaques | match 6E10 anti-Aβ staining quite well | more similar to the one of 6E10 which also stains diffuse Aβ plaques
